Measurements from patent publication US20220289708A1, “SUBSTITUTED N-PHENYL URACILS, SALTS THEREOF AND THEIR USE AS HERBICIDAL AGENTS” (Bayer Aktiengesellschaft, priority 2019, published 2022).

What was measured:
Assay type in all cases: in vivo
[1] = system: Abutilon theophrasti; test: Post-emergence herbicidal action; settings: application rate 5 g/ha, rated visually after about 3 weeks vs untreated controls
Method in brief: (§1)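 Test plants, raised in sandy loam in the greenhouse, were treated 2 to 3 weeks after sowing at application rates of 20 g/ha or lower. Scoring compared treated with untreated plants roughly 3 weeks on, where 100% meant death and 0% meant no visible effect.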

[2] = system: Alopecurus myosuroides; test: Post-emergence herbicidal action; settings: application rate 5 g/ha, rated visually after about 3 weeks vs untreated controls
Method in brief: as §1

[3] = system: Amaranthus retroflexus; test: Post-emergence herbicidal action; settings: application rate 5 g/ha, rated visually after about 3 weeks vs untreated controls
Method in brief: as §1

[4] = system: Digitaria sanguinalis; test: Post-emergence herbicidal action; settings: application rate 5 g/ha, rated visually after about 3 weeks vs untreated controls
Method in brief: as §1

[5] = system: Echinochloa crus-galli; test: Post-emergence herbicidal action; settings: application rate 5 g/ha, rated visually after about 3 weeks vs untreated controls
Method in brief: as §1

[6] = system: Matricaria inodora; test: Post-emergence herbicidal action; settings: application rate 5 g/ha, rated visually after about 3 weeks vs untreated controls
Method in brief: as §1

[7] = system: Pharbitis purpurea; test: Post-emergence herbicidal action; settings: application rate 5 g/ha, rated visually after about 3 weeks vs untreated controls
Method in brief: as §1

[8] = system: Polygonum convolvulus; test: Post-emergence herbicidal action; settings: application rate 5 g/ha
Method in brief: as §1

[9] = system: Setaria viridis; test: Post-emergence herbicidal action; settings: application rate 5 g/ha, rated visually after about 3 weeks vs untreated controls
Method in brief: as §1

[10] = system: Veronica persica; test: Post-emergence herbicidal action; settings: application rate 5 g/ha
Method in brief: as §1

[11] = system: Viola tricolor; test: Post-emergence herbicidal action; settings: application rate 5 g/ha
Method in brief: as §1

[12] = system: Triticum aestivum; test: Post-emergence crop plant compatibility; settings: application rate 5 g/ha
Method in brief: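 Greenhouse crop plants in sandy loam sprayed at one-leaf stage (2-3 weeks after sowing) with WP or EC formulations plus 0.5% additive, 600 l/ha water, at 5 g/ha or 20 g/ha. Damage scored visually after about 3 weeks as % versus untreated controls (100% = plants dead).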

[13] = system: Abutilon theophrasti; test: Pre-emergence herbicidal action; settings: application rate 20 g/ha
Method in brief: (§2)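 Visual % activity after ~3 weeks in greenhouse, relative to untreated pots (100% = plants dead, 0% = like control). Treatment: pre-emergence soil-surface spray, WP/EC in water + 0.5% additive, 600 l/ha, rate ≤80 g/ha.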

[14] = system: Alopecurus myosuroides; test: Pre-emergence herbicidal action; settings: application rate 20 g/ha
Method in brief: as §2

[15] = system: Amaranthus retroflexus; test: Pre-emergence herbicidal action; settings: application rate 20 g/ha
Method in brief: as §2

[16] = system: Avena fatua; test: Pre-emergence herbicidal action; settings: application rate 20 g/ha
Method in brief: as §2

[17] = system: Digitaria sanguinalis; test: Pre-emergence herbicidal action; settings: application rate 20 g/ha
Method in brief: as §2

[18] = system: Echinochloa crus-galli; test: Pre-emergence herbicidal action; settings: application rate 20 g/ha
Method in brief: as §2

[19] = system: Lolium rigidum; test: Pre-emergence herbicidal action; settings: application rate 80 g/ha
Method in brief: as §2

[20] = system: Matricaria inodora; test: Pre-emergence herbicidal action; settings: application rate 20 g/ha
Method in brief: as §2

[21] = system: Pharbitis purpurea; test: Pre-emergence herbicidal action; settings: application rate 20 g/ha
Method in brief: as §2

[22] = system: Polygonum convolvulus; test: Pre-emergence herbicidal action; settings: application rate 20 g/ha
Method in brief: as §2

[23] = system: Setaria viridis; test: Pre-emergence herbicidal action; settings: application rate 20 g/ha
Method in brief: as §2

[24] = system: Veronica persica; test: Pre-emergence herbicidal action; settings: application rate 20 g/ha
Method in brief: as §2

[25] = system: Viola tricolor; test: Pre-emergence herbicidal action; settings: application rate 20 g/ha
Method in brief: as §2

[26] = system: Glycine max; test: Pre-emergence crop plant compatibility; settings: application rate 20 g/ha, observed effect on crop vs untreated controls after about 3 weeks
Method in brief: (§3)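 Crop seeds sown in pots and covered with soil; WP or EC formulations sprayed on the soil surface as aqueous suspension/emulsion with 0.5% additive at 600 l/ha water, 20 g/ha. Greenhouse-grown about 3 weeks, then damage scored visually as % versus untreated controls (100% = plants dead).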

[27] = system: Triticum aestivum; test: Pre-emergence crop plant compatibility; settings: application rate 20 g/ha
Method in brief: as §3

Q: How did the “Abutilon theophrasti (efficacy in %)” value [1] turn out when `Cn1c(C(F)(F)F)cc(=O)n(-c2cc(Oc3cccnc3OCC(=O)OCC3NC(=O)NC3=O)c(Cl)cc2F)c1=O` (stereo not drawn) [I.15-280] was run?
A: 100%

Q: What about the “Alopecurus myosuroides (efficacy in %)” value [2] of the same compound?
A: 90%

Q: And the “Amaranthus retroflexus (efficacy in %)” value [3]?
A: 100%

Q: And the “Digitaria sanguinalis (efficacy in %)” value [4]?
A: 100%

Q: What about the “Echinochloa crus-galli (efficacy in %)” value [5] of the same compound?
A: 80%

Q: What about the “Matricaria inodora (efficacy in %)” value [6] of the same compound?
A: 90%

Q: What about the “Pharbitis purpurea (efficacy in %)” value [7] of the same compound?
A: 100%

Q: What about the “Polygonum convolvulus (efficacy in %)” value [8] of the same compound?
A: 100%

Q: What about the “Setaria viridis (efficacy in %)” value [9] of the same compound?
A: 100%

Q: And the “Veronica persica (efficacy in %)” value [10]?
A: 100%

Q: What about the “Viola tricolor (efficacy in %)” value [11] of the same compound?
A: 100%

Q: What about the “Triticum aestivum (efficacy in %)” value [12] of the same compound?
A: 20%

Q: What about the “Abutilon theophrasti (efficacy in %)” value [13] of the same compound?
A: 100%

Q: What about the “Alopecurus myosuroides (efficacy in %)” value [14] of the same compound?
A: 90%

Q: What about the “Amaranthus retroflexus (efficacy in %)” value [15] of the same compound?
A: 100%

Q: What about the “Avena fatua (efficacy in %)” value [16] of the same compound?
A: 80%

Q: And the “Digitaria sanguinalis (efficacy in %)” value [17]?
A: 100%

Q: What about the “Echinochloa crus-galli (efficacy in %)” value [18] of the same compound?
A: 90%

Q: And the “Lolium rigidum (efficacy in %)” value [19]?
A: 100%

Q: And the “Matricaria inodora (efficacy in %)” value [20]?
A: 100%

Q: What about the “Pharbitis purpurea (efficacy in %)” value [21] of the same compound?
A: 90%

Q: What about the “Polygonum convolvulus (efficacy in %)” value [22] of the same compound?
A: 100%

Q: What about the “Setaria viridis (efficacy in %)” value [23] of the same compound?
A: 100%

Q: What about the “Veronica persica (efficacy in %)” value [24] of the same compound?
A: 100%

Q: And the “Viola tricolor (efficacy in %)” value [25]?
A: 100%

Q: What about the “Glycine max (efficacy in %)” value [26] of the same compound?
A: 0%

Q: What about the “Triticum aestivum (efficacy in %)” value [27] of the same compound?
A: 10%
